In article PMC6990966, “Treatment of Porphyromonas gulae infection and downstream pathology in the aged dog by lysine‐gingipain inhibitor COR388” (Pharmacology Research & Perspectives, 2020):
Like-named read-outs stand apart in the source and are kept apart here.

Assays:
[1] = design: method as in PMID 30746447; conditions: mice; cited from earlier work
[2] = system: RgpB; assay: Rgp enzyme activity assay in SGP of dosed dogs; format: in vivo, Beagle dogs; conditions: oral 10 mg kg^−1 q.d. for 28 days
Experimental: (§1) Aged Beagle dogs of both sexes ranging from 8 to 15 years of age, in generally good health and located in the Vivocore Inc dog colony, were utilized in this study. All procedures were reviewed and approved by Vivocore's Institutional Animal Care and Use Committee (IACUC) and were performed in accordance with the principles of the Animal for Research Act of Ontario and the guidelines of Canadian Council on Animal Care (CCAC). Structure‐based design was used to develop a library of gingipain inhibitors, which were tested on purified Kgp and RgpB to assess potency and determine inhibition constants. The detailed chemical synthesis and structure of compounds in the relevant series of lysine‐gingipain inhibitors including COR388 can be found in PCT/2016/0061197. […] In the first study, four dogs were dosed 10 mg kg^−1 q.d. with endpoints assessed after dosing and compared to those taken pre‐dose in individual dogs. […]
For the detection of arginine‐gingipain (Rgp) activity, cysteine‐HCl was freshly added to RgpB buffer (100 mmol L^−1 Tris, 200 mmol L^−1 gly‐gly, 5 mmol L^−1 CaCl2) to a final concentration of 10 mmol L^−1 to produce a RgpB working enzyme assay buffer. […] After 50 μL of substrate solution was added, the plate was immediately read at 405 nm for 1 hour with interval of every 1.5 minutes read at 37°C and continuous shaking in Biotek Synergy 2 microplate reader. […]

[3] = system: P. gulae; assay: qPCR detection of P. gulae load in oral samples of naturally infected aged dogs; format: in vivo, Beagle dogs
Experimental: as §1, with “constants.” for “constants. The detailed chemical synthesis and structure of compounds in the relevant series of lysine‐gingipain inhibitors including COR388 can be found in PCT/2016/0061197.”
Biofluids were evaluated for P. gulae load using a qPCR assay that was developed to specifically detect P. gulae 16S gene with the following primers and probe: Forward primer […], Reverse primer […], and probe […]. […] Saliva was evaluated with either 2 μL neat saliva or purified DNA from 2 μL saliva. Buccal cells were evaluated with either 2 μL neat buccal cell slurry or purified DNA from 2 μL buccal cell slurry. SGP was evaluated with 2 μL from the elution in B‐Per. GCF was evaluated with either purified DNA from 50 μL of B‐Per eluted GCF or neat 2 μL elution.

[4] = system: Kgp; assay: Kgp activity in GCF of dosed dogs using COR553 activity-based probe; format: in vivo, Beagle dogs
Experimental: Aged Beagle dogs of both sexes ranging from 8 to 15 years of age, in generally good health and located in the Vivocore Inc dog colony, were utilized in this study. All procedures were reviewed and approved by Vivocore's Institutional Animal Care and Use Committee (IACUC) and were performed in accordance with the principles of the Animal for Research Act of Ontario and the guidelines of Canadian Council on Animal Care (CCAC). Structure‐based design was used to develop a library of gingipain inhibitors, which were tested on purified Kgp and RgpB to assess potency and determine inhibition constants. The detailed chemical synthesis and structure of compounds in the relevant series of lysine‐gingipain inhibitors including COR388 can be found in PCT/2016/0061197. Detailed characterization of COR388 enzyme target binding, potency, and selectivity are previously described.1 Test article administered, COR388 HCl, was a solid powdered material. Dogs were dosed with neat compound hand‐filled in gelatin capsules (size 1, Torpac) orally at the listed doses (free‐base, corrected for salt form). All dogs utilized in studies were positive on previous BANA enzyme (BANAMet LLC, Ann Arbor, MI) testing of oral plaque samples (assay described below). In the first study, four dogs were dosed 10 mg kg^−1 q.d. with endpoints assessed after dosing and compared to those taken pre‐dose in individual dogs. The second dose‐response study was conducted with a randomized, blinded, matched‐group design with 12 dogs. Following baseline sample collections prior to dosing, animals were allocated to four dosing groups, n = 3 dogs per group as follows: vehicle (empty capsule), 0.15, 0.5, and 1.5 mg kg^−1 b.i.d (Q12h). Dosing continued for 28 days (0.15 and 1.5 mg kg^−1) or 90 days (vehicle and 0.5 mg kg^−1). Groups were balanced for age, sex, weight, and baseline BANA test results to the extent possible. Dogs were group housed according to dosing group in compliance with the recommendations of the CACC. Dogs were fed a standard commercial dry diet daily in the evenings with water provided ad libitum but not within 30 minutes of the start of anesthetic procedures.
Gingival Crevicular Fluid: GCF was collected from the gingival pockets at times following dosing ±30 minutes, as indicated. Eight sampling sites were identified per dog and four sites were used per timepoint. Sampling sites were isolated with a cotton roll and air‐dried. Gingival fluid collection strips (Periopaper™, Oraflow) were gently held with tweezers and placed into the pocket until resistance was felt. Strips were held in place for 30 seconds and then processed as described above for SGP isolation. […]

[5] = system: P. gingivalis cultures; conditions: P. gingivalis cultures in vitro; cited from earlier work
[6] = system: periodontal disease (pocket depth); assay: Dental assessment of gingival pocket depth; format: in vivo, Beagle dogs; conditions: oral 0.5 mg kg^−1 b.i.d., day 90 vs baseline
Experimental: Aged Beagle dogs of both sexes ranging from 8 to 15 years of age, in generally good health and located in the Vivocore Inc dog colony, were utilized in this study. All procedures were reviewed and approved by Vivocore's Institutional Animal Care and Use Committee (IACUC) and were performed in accordance with the principles of the Animal for Research Act of Ontario and the guidelines of Canadian Council on Animal Care (CCAC). Structure‐based design was used to develop a library of gingipain inhibitors, which were tested on purified Kgp and RgpB to assess potency and determine inhibition constants. The detailed chemical synthesis and structure of compounds in the relevant series of lysine‐gingipain inhibitors including COR388 can be found in PCT/2016/0061197. Detailed characterization of COR388 enzyme target binding, potency, and selectivity are previously described.1 Test article administered, COR388 HCl, was a solid powdered material. Dogs were dosed with neat compound hand‐filled in gelatin capsules (size 1, Torpac) orally at the listed doses (free‐base, corrected for salt form). All dogs utilized in studies were positive on previous BANA enzyme (BANAMet LLC, Ann Arbor, MI) testing of oral plaque samples (assay described below). In the first study, four dogs were dosed 10 mg kg^−1 q.d. with endpoints assessed after dosing and compared to those taken pre‐dose in individual dogs. […]

[7] = Plasma pharmacokinetics after single intravenous dose; format: in vivo, Beagle dogs; conditions: both sexes, Beagle, dog, single intravenous dose 1 mg kg^−1 in PBS, mean ± SD
[8] = Plasma pharmacokinetics after oral administration in gelatin capsules; format: in vivo, Beagle dogs; conditions: Beagle, dog; for bioavailability: po, 0.5 mg/kg
Experimental: Aged Beagle dogs of both sexes ranging from 8 to 15 years of age, in generally good health and located in the Vivocore Inc dog colony, were utilized in this study. All procedures were reviewed and approved by Vivocore's Institutional Animal Care and Use Committee (IACUC) and were performed in accordance with the principles of the Animal for Research Act of Ontario and the guidelines of Canadian Council on Animal Care (CCAC). […] The detailed chemical synthesis and structure of compounds in the relevant series of lysine-gingipain inhibitors including COR388 can be found in PCT/2016/0061197. Detailed characterization of COR388 enzyme target binding, potency, and selectivity are previously described.1 Test article administered, COR388 HCl, was a solid powdered material. Dogs were dosed with neat compound hand-filled in gelatin capsules (size 1, Torpac) orally at the listed doses (free-base, corrected for salt form). All dogs utilized in studies were positive on previous BANA enzyme (BANAMet LLC, Ann Arbor, MI) testing of oral plaque samples (assay described below). In the first study, four dogs were dosed 10 mg kg^-1 q.d. with endpoints assessed after dosing and compared to those taken pre-dose in individual dogs. The second dose-response study was conducted with a randomized, blinded, matched-group design with 12 dogs. […] Groups were balanced for age, sex, weight, and baseline BANA test results to the extent possible. Dogs were group housed according to dosing group in compliance with the recommendations of the CACC. Dogs were fed a standard commercial dry diet daily in the evenings with water provided ad libitum but not within 30 minutes of the start of anesthetic procedures. For evaluation of pharmacokinetics parameters, approximately 2 mL of blood was collected at the indicated time points following test article administration into K2EDTA tubes and plasma was isolated for bioanalytical determination of plasma concentrations of COR388. A single intravenous dose of COR388 was administered in PBS at a dose of 1 mg kg^-1. Quantitation of COR388 in plasma samples following protein precipitation with mianserin added as an internal standard, was performed from the time points shown using a qualified LC-MS/MS method (AB Sciex 4000 QTrap). Plasma concentration versus time profiles were analyzed to determine pharmacokinetic parameters using noncompartmental methods (Phoenix® WinNonlin® 6.3, Pharsight Certara).

SMILES: NCCCC[C@H](NC(=O)C1CCCC1)C(=O)COc1c(F)ccc(F)c1F [COR388]
- brain penetration [1]: brain penetrant
- active RgpB in SGP versus baseline day 1 [2]: reduction
- mean decrease in baseline P. gulae DNA ([3]; buccal cells, oral 10 mg kg^−1 once a day, after 14 days of dosing): > 80%
- P. gulae bacterial load over time compared to vehicle control ([3]; oral 0.5 mg kg^−1 b.i.d. for 90 days, buccal cells (Figure 5A)): statistically significant reduction
- inhibition of baseline Kgp activity ([4]; oral 0.5 mg kg^−1, after a single dose): roughly 50%
- Kgp activity compared to vehicle control ([4]; oral 0.5 mg kg^−1 b.i.d. for 90 days): statistically significant reduction
- inhibition of baseline Kgp activity ([4]; oral 0.5 mg kg^−1 b.i.d., after 28 days of dosing): near complete inhibition
- active Kgp available for COR553 probe binding ([4]; oral 10 mg kg^−1 q.d., 2 hours after dosing on days 14 and 28): no active sites were available for probe binding
- drug resistance on chronic administration [5]: did not lead to drug resistance
- mean average pocket depth, all individual pockets ([6]; P = .0156): reduction
- mean average pocket depth, pockets ≥3 mm at baseline or end of study, per dog ([6]; P = .0332): significant reduction
- half-life ([7]; read-out: elimination half-life (converted)): 3.5 ± 0.6 h
- clearance ([7]; read-out: systemic clearance (CLS) (converted)): 35 mL/min/kg
- Vd ([7]; read-out: volume distribution (Vss)): 5.2 ± 1.3 L/kg
- Cmax ([8]; oral 0.15 mg kg^−1 b.i.d. group, single dog with minimal Kgp inhibition, read-out: plasma Cmax of the one dog with lowest exposure): 2.73 ng/mL
- Tmax ([8]; both sexes, 0.5 mg kg^-1 oral, single oral dose (Figure 2C), mean ± SD): 2.17 ± 1.76 h
- half-life ([8]; both sexes, 0.5 mg kg^-1 oral, single oral dose (Figure 2C), mean ± SD, read-out: Apparent t1/2 (converted)): 2.42 ± 0.236 h
- concentration at 12 h ([8]; both sexes, 12 hours after oral dosing of 0.5 mg kg^−1, read-out: mean trough plasma concentration (Cmin)): 2.67 ng/mL
- Cmax ([8]; both sexes, oral 0.15 mg kg^−1 b.i.d. group, read-out: mean Cmax in dose group): 9.74 ng/mL
- AUC(0-t) ([8]; both sexes, oral 0.5 mg kg^−1 administered b.i.d. for 6 days, read-out: AUC0-12 h): 265 ng·h/mL
- Cmax ([8]; both sexes, oral 0.5 mg kg^−1 administered b.i.d. for 6 days, read-out: Cmax): 66.6 ng/mL
- bioavailability ([8]; both sexes, 0.5 mg kg^-1 oral, single oral dose (Figure 2C), mean ± SD, read-out: F): 105 ± 28.8%
- bioavailability ([8]; both sexes, oral doses of 0.5 mg kg^−1 and higher, read-out: bioavailability (%F)): 100%
